In PMC4931477, “Electronic Biosensing with Functionalized rGO FETs” (Biosensors, 2016):

Assays:
[1] = target: T1, OBP14 (odorant binding protein 14) (Apis mellifera, UniProt A0A8U0WQC3); assay: rGO-FET biosensor, shift of ISD-vs-VG curves with ligand concentration; details: protein covalently immobilized via PBSE on rGO gate; liquid gate, VSD = 50 mV
T1 construct: recombinant, bacterial expression, purified by chromatography and Superose-12 gel filtration; covalently immobilized via PBSE linker on rGO FET gate
T1 sequence (A0A8U0WQC3 17-135): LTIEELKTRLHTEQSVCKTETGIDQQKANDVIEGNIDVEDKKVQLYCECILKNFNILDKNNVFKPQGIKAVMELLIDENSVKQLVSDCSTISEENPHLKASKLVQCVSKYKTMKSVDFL

[2] = target: T1, OBP14 (odorant binding protein 14); assay: rGO-FET biosensor, real-time kinetics (koff/kon), source-drain current
[3] = target: T1, OBP14 (odorant binding protein 14); assay: rGO-FET biosensor, equilibrium titration, Langmuir isotherm; details: protein covalently immobilized via PBSE on rGO gate; aqueous solution; titration determination

Compound | rGO-FET biosensor, shift of ISD-vs-VG curves with ligand concentration [1] | Kd [2] | KA [3]
C=CCc1ccc(O)c(OC)c1 [Eugenol] | OBP14 functionalized rGO FET-biosensor device at different Eugenol concentrations |  | 
COc1cc(CC(=O)O)ccc1O [homovanillic acid] |  | 7.1 µM | 2.5 × 10^5
